The values that follow come from US20100168083A1, “ADAMANTANE DERIVATIVES FOR THE TREATMENT OF THE METABOLIC SYNDROME” (priority 2006, published 2010).

The assay has as its target T1, h-11βHSD1 (Homo sapiens, UniProt P28845).
T1 construct: made in house; host or cells: yeast
Put plainly: 11βHSD1 enzyme assay (SPA). The assay is classed as biochemical. The note with it: extract of yeast transformed with h-11βHSD1; 120 nM 3H-cortisone; 60 min at 30° C. The procedure:
11βHSD1 Enzyme Assay Materials ^3H-cortisone and anti-rabbit Ig coated scintillation proximity assay (SPA) beads were purchased from Amersham Pharmacia Biotech, β-NADPH was from Sigma and rabbit anti-cortisol antibodies were from Fitzgerald. […] The test compounds were dissolved in DMSO (10 mM). All dilutions were performed in a buffer containing 50 mM TRIS-HCl (Sigma Chemical Co), 4 mM EDTA (Sigma Chemical Co), 0.1% BSA (Sigma Chemical Co), 0.01% Tween-20 (Sigma Chemical Co) and 0.005% bacitracin (Novo Nordisk A/S), pH=7.4. Optiplate 96 wells plates were supplied by Packard. The amount of ^3H-cortisol bound to the SPA beads was measured on TopCount NXT, Packard. […] The reaction was initiated by mixing the different components and was allowed to proceed under shaking for 60 min at 30° C. The reaction was stopped be the addition of 10 fold excess of a stopping buffer containing 500 μM carbenoxolone and 1 μM cortisone. Data was analysed using GraphPad Prism software.

Broadly, the IC50 is the concentration that inhibits the measured activity by half. Read a low IC50 as greater potency in that assay.

T1 sequence (P28845 whole entry): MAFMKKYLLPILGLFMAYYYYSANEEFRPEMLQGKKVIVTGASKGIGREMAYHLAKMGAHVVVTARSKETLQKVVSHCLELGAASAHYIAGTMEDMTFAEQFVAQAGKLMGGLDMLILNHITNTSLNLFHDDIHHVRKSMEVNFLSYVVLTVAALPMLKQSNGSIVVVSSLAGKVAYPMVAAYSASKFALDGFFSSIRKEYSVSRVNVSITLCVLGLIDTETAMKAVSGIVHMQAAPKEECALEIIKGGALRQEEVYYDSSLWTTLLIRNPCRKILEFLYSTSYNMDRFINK

For `O=C(O)c1ccc(OCCC2CCN(C(=O)[C@]34C[C@H]5C[C@H](C[C@H](C5)C3)C4)CC2)cc1` [Example 3, 4-{2-[1-(Tricyclo[3.3.1.1.3.7]decanane-1-carbonyl)-piperidin-4-yl]-ethoxy}-benzoic acid], the IC50 was 1.32 µM.

`O=C(N1CCC(COc2ccccn2)CC1)[C@]12C[C@H]3C[C@H](C[C@H](C3)C1)C2` [Example 6] registered a half-inhibitory concentration (IC50) of 0.835 µM.
